Biological target: T1, human PAR-2 (hPAR-2) receptor (Homo sapiens, UniProt P55085)
T1 construct: expressed in HEK-293 cells in an endogenous manner; endogenous in cells; host or cells: HEK-293
T1 sequence (P55085 26-397): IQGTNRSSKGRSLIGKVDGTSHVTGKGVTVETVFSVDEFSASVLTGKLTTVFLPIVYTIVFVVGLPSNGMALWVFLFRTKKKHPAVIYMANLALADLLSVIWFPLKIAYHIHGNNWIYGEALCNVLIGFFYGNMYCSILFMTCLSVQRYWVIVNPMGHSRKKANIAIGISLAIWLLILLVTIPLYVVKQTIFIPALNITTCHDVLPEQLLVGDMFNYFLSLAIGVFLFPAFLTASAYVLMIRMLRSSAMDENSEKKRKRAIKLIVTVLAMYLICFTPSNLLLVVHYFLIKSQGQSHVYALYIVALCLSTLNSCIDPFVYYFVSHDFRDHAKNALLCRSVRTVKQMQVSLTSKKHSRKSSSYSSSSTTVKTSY
Assay: In vitro human PAR-2 functional antagonist activity using calcium assays
Format: cell-based
Details: hPAR-2 endogenously expressed in HEK-293 cells; stimulated by 2-Furoyl-LIGRLO-NH2 peptide; Fluo4AM intracellular calcium, FLIPR Tetra
Procedure, shortened: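 Antagonism was measured as reduced calcium response to 2-Furoyl-LIGRLO-NH2 (dosed at its 80%-of-maximum concentration), recorded for 5 min. This followed a 10 min compound pre-incubation on Fluo4AM-loaded HEK-293 cells expressing native hPAR-2. Signals were normalised to buffer and agonist-alone controls.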

| IC50 [nM] | Compound |
| --- | --- |
| < 500 | CC1(C)CN(c2ccc(F)c(F)c2)c2ncc(C(=O)N3CCN(c4ccc(CC(=O)O)cn4)CC3(C)C)nc21 [Example 171, 2-(6-(4-(5-(3,4-difluorophenyl)-7,7-dimethyl-6,7-dihydro-5H-pyrrolo[2,3-b]pyrazine-2-carbonyl)-3,3-dimethylpiperazin-1-yl)pyridin-3-yl)acetic acid] |
| < 500 | CC1(C)CN(c2ccc(Cl)c(F)c2)c2ncc(C(=O)N3CCN(c4ccc(CC(=O)O)cn4)CC3(C)C)nc21 [Example 173, 2-(6-(4-(5-(4-chloro-3-fluorophenyl)-7,7-dimethyl-6,7-dihydro-5H-pyrrolo[2,3-b]pyrazine-2-carbonyl)-3,3-dimethylpiperazin-1-yl)pyridin-3-yl)acetic acid] |
| < 500 | CC1(C)CN(c2ccc(Cl)c(F)c2)c2ccc(C(=O)N3CCN(c4ccc(C(C)(C)C(=O)O)cn4)CC3(C)C)nc21 [Example 175, 2-(6-(4-(1-(4-chloro-3-fluorophenyl)-3,3-dimethyl-2,3-dihydro-1H-pyrrolo[3,2-b]pyridine-5-carbonyl)-3,3-dimethylpiperazin-1-yl)pyridin-3-yl)-2-methylpropanoic acid] |
| < 500 | CC1(C)CCN(c2ccc(Cl)c(F)c2)c2ccc(C(=O)N3CCN(c4ccc(CC(=O)O)cn4)CC3(C)C)nc21 [Example 177, 2-(6-(4-(5-(4-chloro-3-fluorophenyl)-8,8-dimethyl-5,6,7,8-tetrahydro-1,5-naphthyridine-2-carbonyl)-3,3-dimethylpiperazin-1-yl)pyridin-3-yl)acetic acid] |
| > 10000 | CC1(C)CN(c2ccc(CC(=O)O)cn2)CCN1C(=O)c1cc2n(n1)C(C)(C)CCN2c1ccc(Cl)c(F)c1 [Example 179, 2-(6-(4-(4-(4-chloro-3-fluorophenyl)-7,7-dimethyl-4,5,6,7-tetrahydropyrazolo[1,5-a]pyrimidine-2-carbonyl)-3,3-dimethylpiperazin-1-yl)pyridin-3-yl)acetic acid] |
| < 500 | Cc1cc(N2CCN(C(=O)c3cnc4c(n3)C(C)(C)CN4c3ccc(F)c(F)c3)C(C)(C)C2)nc(C)c1C(=O)O [Example 181, 6-(4-(5-(3,4-difluorophenyl)-7,7-dimethyl-6,7-dihydro-5H-pyrrolo[2,3-b]pyrazine-2-carbonyl)-3,3-dimethylpiperazin-1-yl)-2,4-dimethylnicotinic acid] |
| > 10000 | Cc1cc(N2CCN(C(=O)c3cnc4c(n3)C(C)(C)CN4C3CCCC3)C(C)(C)C2)nc(C)c1C(=O)O [Example 183, 6-(4-(5-cyclopentyl-7,7-dimethyl-6,7-dihydro-5H-pyrrolo[2,3-b]pyrazine-2-carbonyl)-3,3-dimethylpiperazin-1-yl)-2,4-dimethylnicotinic acid] |
| < 500 | Cc1ccc(N2CC(C)(C)c3nc(C(=O)N4CCN(c5cc(C)c(C(=O)O)c(C)n5)CC4(C)C)cnc32)cc1F [Example 185, 6-(4-(5-(3-fluoro-4-methylphenyl)-7,7-dimethyl-6,7-dihydro-5H-pyrrolo[2,3-b]pyrazine-2-carbonyl)-3,3-dimethylpiperazin-1-yl)-2,4-dimethylnicotinic acid] |
| < 500 | Cc1cc(N2CCN(C(=O)c3cnc4c(n3)C(C)(C)CN4c3cc(F)c(Cl)c(F)c3)C(C)(C)C2)nc(C)c1C(=O)O [Example 187, 6-(4-(5-(4-chloro-3,5-difluorophenyl)-7,7-dimethyl-6,7-dihydro-5H-pyrrolo[2,3-b]pyrazine-2-carbonyl)-3,3-dimethylpiperazin-1-yl)-2,4-dimethylnicotinic acid] |
| < 500 | Cc1ccc(N2CC(C)(C)c3nc(C(=O)N4CCN(c5cc(C)c(C(=O)O)c(C)n5)CC4(C)C)cnc32)cc1Cl [Example 189, 6-(4-(5-(3-chloro-4-methylphenyl)-7,7-dimethyl-6,7-dihydro-5H-pyrrolo[2,3-b]pyrazine-2-carbonyl)-3,3-dimethylpiperazin-1-yl)-2,4-dimethylnicotinic acid] |
| < 500 | Cc1cc(N2CCN(C(=O)c3cnc4c(n3)C(C)(C)CN4c3ccc(F)c(Cl)c3)C(C)(C)C2)nc(C)c1C(=O)O [Example 191, 6-(4-(5-(3-chloro-4-fluorophenyl)-7,7-dimethyl-6,7-dihydro-5H-pyrrolo[2,3-b]pyrazine-2-carbonyl)-3,3-dimethylpiperazin-1-yl)-2,4-dimethylnicotinic acid] |
| < 500 | Cc1cc(N2CCN(C(=O)c3cnc4c(n3)C(C)(C)CN4c3ccc(C(F)(F)F)c(Cl)c3)C(C)(C)C2)nc(C)c1C(=O)O [Example 193, 6-(4-(5-(3-chloro-4-(trifluoromethyl)phenyl)-7,7-dimethyl-6,7-dihydro-5H-pyrrolo[2,3-b]pyrazine-2-carbonyl)-3,3-dimethylpiperazin-1-yl)-2,4-dimethylnicotinic acid] |
| 500 to 10000 | CC1(C)CN(c2ccc(CC(=O)O)cn2)CCN1C(=O)c1cc2n(n1)C(C)(C)CN(c1ccc(Cl)c(F)c1)C2 [Example 195, 2-(6-(4-(5-(4-chloro-3-fluorophenyl)-7,7-dimethyl-4,5,6,7-tetrahydropyrazolo[1,5-a]pyrazine-2-carbonyl)-3,3-dimethylpiperazin-1-yl)pyridin-3-yl)acetic acid] |

Second part, the molecule before the results:

| Compound | IC50 [nM] |
| --- | --- |
| CCC1(CC)CN(c2ccc(Cl)c(F)c2)c2ccc(C(=O)N3CCN(c4ccc(CC(=O)O)cn4)CC3(C)C)nc21 [Example 148, 2-(6-(4-(1-(4-chloro-3-fluorophenyl)-3,3-diethyl-2,3-dihydro-1H-pyrrolo[3,2-b]pyridine-5-carbonyl)-3,3-dimethylpiperazin-1-yl)pyridin-3-yl)acetic acid] | < 500 |
| CC1(C)CN(c2ccc(Cl)c(F)c2)c2ccc(C(=O)N3CCN(c4cncc(C(=O)O)c4)CC3(C)C)nc21 [Example 151, 5-(4-(1-(4-chloro-3-fluorophenyl)-3,3-dimethyl-2,3-dihydro-1H-pyrrolo[3,2-b]pyridine-5-carbonyl)-3,3-dimethylpiperazin-1-yl)nicotinic acid] | < 500 |
| CC1(C)CN(c2ccc(C(=O)N3CCN(c4cncc(C(=O)O)c4)CC3(C)C)c(F)c2)c2ccc(C(=O)N3CCN(c4cncc(C(=O)O)c4)CC3(C)C)nc21 [Example 152, 5-(4-(4-(5-(4-(5-carboxypyridin-3-yl)-2,2-dimethylpiperazine-1-carbonyl)-3,3-dimethyl-2,3-dihydro-1H-pyrrolo[3,2-b]pyridin-1-yl)-2-fluorobenzoyl)-3,3-dimethylpiperazin-1-yl)nicotinic acid] | > 10000 |
| CC1CC2(C1)CN(c1ccc(Cl)c(F)c1)c1ccc(C(=O)N3CCN(c4ccc(CC(=O)O)cn4)CC3(C)C)nc12 (centres unmarked) [Example 154, 2-(6-(4-(1′-(4-chloro-3-fluorophenyl)-3-methyl-1′,2′-dihydrospiro[cyclobutane-1,3′-pyrrolo[3,2-b]pyridine]-5′-carbonyl)-3,3-dimethylpiperazin-1-yl)pyridin-3-yl)acetic acid] | < 500 |
| CC(C(=O)O)c1ccc(N2CCN(C(=O)c3ccc4c(n3)C(C)(C)CN4c3ccc(Cl)c(F)c3)C(C)(C)C2)nc1 (centres unmarked) [Example 160, 2-(6-(4-(1-(4-chloro-3-fluorophenyl)-3,3-dimethyl-2,3-dihydro-1H-pyrrolo[3,2-b]pyridine-5-carbonyl)-3,3-dimethylpiperazin-1-yl)pyridin-3-yl)propanoic acid] | < 500 |
| Cc1cc(N2CCN(C(=O)c3ccc4c(n3)C(C)(C)CN4C3CCC(C(N)=O)CC3)C(C)(C)C2)nc(C)c1C(=O)O (centres unmarked) [Example 162, 6-(4-(1-(4-carbamoylcyclohexyl)-3,3-dimethyl-2,3-dihydro-1H-pyrrolo[3,2-b]pyridine-5-carbonyl)-3,3-dimethylpiperazin-1-yl)-2,4-dimethylnicotinic acid] | 500 to 10000 |
| CC1(C)CN(C2CCC(F)(F)CC2)c2ccc(C(=O)N3CCN(c4ccc(CC(=O)O)cn4)CC3(C)C)nc21 [Example 164, 2-(6-(4-(1-(4,4-difluorocyclohexyl)-3,3-dimethyl-2,3-dihydro-1H-pyrrolo[3,2-b]pyridine-5-carbonyl)-3,3-dimethylpiperazin-1-yl)pyridin-3-yl)acetic acid] | < 500 |
| Cc1cc(C)nc(N2CCN(C(=O)c3ccc4c(n3)C(C)(C)CN4C3CCC(C#N)CC3)C(C)(C)C2)c1 (centres unmarked) [Example 165, 4-(5-(4-(4,6-dimethylpyridin-2-yl)-2,2-dimethylpiperazine-1-carbonyl)-3,3-dimethyl-2,3-dihydro-1H-pyrrolo[3,2-b]pyridin-1-yl)cyclohexane-1-carbonitrile] | 500 to 10000 |
| CC1(C)CN(C2CCCC2)c2ccc(C(=O)N3CCN(c4ccc(CC(=O)O)cn4)CC3(C)C)nc21 [Example 167, 2-(6-(4-(1-cyclopentyl-3,3-dimethyl-2,3-dihydro-1H-pyrrolo[3,2-b]pyridine-5-carbonyl)-3,3-dimethylpiperazin-1-yl)pyridin-3-yl)acetic acid] | 500 to 10000 |
| CC1(C)CN(C2CCC(C#N)CC2)c2ccc(C(=O)N3CCN(c4ccc(CC(=O)O)cn4)CC3(C)C)nc21 (centres unmarked) [Example 169, 2-(6-(4-(1-(4-cyanocyclohexyl)-3,3-dimethyl-2,3-dihydro-1H-pyrrolo[3,2-b]pyridine-5-carbonyl)-3,3-dimethylpiperazin-1-yl)pyridin-3-yl)acetic acid] | 500 to 10000 |

From patent US20250320224A1 (DOMAIN THERAPEUTICS, priority 2022, published 2025)
